The record followed here is patent US20030175314A1, “Pharmaceutical composition for dermal application” (priority 2001, published 2003).

One may read the solubility as the dissolved amount per volume that the medium holds.

In one data set the test system is PDE4. Briefly: in vitro PDE4 inhibition. It counts as biochemical. The conditions noted are these: in vitro studies. The source says:
(§1) The compound of formula I, 1,3-dicyclopropylmethyl-8-aminoxanthine, is also known by the proposed generic name cipamfylline. The compound and a method of its preparation is disclosed in U.S. Pat. No. 5,734,051 which is hereby incorporated by reference in its entirety.

Data set [1] deals with secretion of proinflammatory cytokines such as tumour necrosis factor α (TNF-α), IL-10, IL-12 and IFN-γ. Briefly: in vitro secretion of proinflammatory cytokines. The class given is cell-based. To be noted: in vitro studies.
Text: as §1

In the next data set the test system is lymphocyte proliferation. Description: in vitro lymphocyte proliferation. To be noted: in vitro studies. It counts as cell-based.
Text: as §1

A further data set can be described thus: solubility. It counts as physicochemical. How it is done: Cipamfylline has a pronounced inner crystal bonding resulting in a high melting point (about 310-312° C.) and some degree of hydrophobicity. […] On the other hand, effective delivery of the active component into the epidermis where it can exert its effect requires that the compound be present in a dissolved state in said composition.

The format of data set [2] is physicochemical. The source says: More specifically, the solvent comprises a non-toxic glycol or glycol ether selected from the group consisting of propylene glycol, butylene glycol, diethylene glycol and diethylene glycol ether. […] The advantageous dissolution properties of propylene glycol may be explained by the solubility properties of this particular solvent, as determined by the Hildebrand solubility coefficient (J H Hildebrand and R L Scott, The Solubility of Non-Electrolytes, Reinhold, N.Y., 1949). […] Thus propylene glycol has a Hildebrand coefficient within ±2 units of that of cipamfylline which makes it an effective solvent for this active component.

The next data set concerns atopic dermatitis. Description: phase II left/right study, cipamfylline cream vs vehicle or Locoid cream (Example 2). It counts as in vivo, Humans. The conditions noted are these: for decrease of total severity score: 1 g twice daily, two weeks. How it is done:
In a phase II, multi-centre, randomised, double-blind left/right study comparing cipamfylline cream 1.5 mg/g (formulation B) with the reference vehicle without cipamfylline and with Locoid cream 0.1% (hydrocortisone-17-butyrate 0.1% cream) in patients suffering from atopic dermatitis, patients were randomised to either group (1) cipamfylline cream 1.5 mg/g in reference vehicle vs vehicle or (2) cipamfylline cream 1.5 mg/g in reference vehicle vs Locoid cream. One g of each cream were applied twice daily for two weeks. A total number of 108 patients with a clinical diagnosis of atopic dermatitis, with symmetrical lesions of atopic dermatitis on their arms with a minimum score of 6 in the total severity score (ratings of erythema, oedema/papulation, oozing/crusting, excoriations and lichenification on a scale from 0-3) were included. Excluded were patients with suspected infection in the treatment areas, patients who were receiving other treatment for atopic dermatitis or who were pregnant or planning to become pregnant in the course of the study.

The next data set concerns skin. Description: skin irritation by the solvent. The class given is in vivo. The conditions noted are these: propylene glycol in itself. An excerpt:
Apart from being a solvent for cipamfylline, propylene glycol as a secondary penetration enhancer, i.e. a substance which is capable of penetrating the stratum corneum and “draw” low-molecular components such as therapeutically active components in the vehicle into the epidermis. […] For this reason, propylene glycol has previously been thought to be unsuitable for inclusion as a solvent in compositions intended for the treatment of atopic dermatitis. However, the present vehicle has been specifically designed to exclude all excipients which are capable of penetrating into the epidermis (or being “drawn” into the epidermis by the solvent) and which are not essential for formulation purposes, resulting in a composition which, according to the clinical tests described in Example 3 herein, gives rise to fewer irritative reactions in skin on which the composition is applied compared to a conventional reference formulation. This, of course, is particularly important for dermal formulations intended for application on inflamed, and therefore highly irritated skin so as to avoid a painful burning sensation at the site of application and more long-term irritation such as pain or itching.

As to `Nc1nc2c([nH]1)c(=O)n(CC1CC1)c(=O)n2CC1CC1` [cipamfylline, 1,3-dicyclopropylmethyl-8-aminoxanthine], the “inhibition of PDE4” value with PDE4 was “potent and selective inhibitor”. In addition, the “inhibition of the secretion of proinflammatory cytokines (TNF-α, IL-10, IL-12, IFN-γ)” value in data set [1] was “inhibitor”. In addition, in the data set on lymphocyte proliferation, the “effect on lymphocyte proliferation” value is given as “no effect”. The same compound gave a solubility in “solubility” (water) of less than 50 µg/mL. In addition, the “solubility with water as co-solvent” value in the data set “solubility” (water present as a co-solvent in an amount of about 25% or more) is on record as “greatly decreased”. Besides, the “Hildebrand coefficient (solubility parameter δ)” value in data set [2] is “about 13.4 (cal/cm^3)^1/2”. In addition, the “decrease of total severity score” value in the data set on atopic dermatitis (group (1) cipamfylline cream 1.5 mg/g (formulation B) vs vehicle, end of study) stood at 38%; in the data set with atopic dermatitis (group (2) cipamfylline cream 1.5 mg/g (formulation B) vs Locoid cream 0.1%, end of treatment) it was 30%. The “patients with local adverse reactions (burning, stinging, pruritus)” value with atopic dermatitis (treated side, cipamfylline cream 1.5 mg/g vs vehicle) is on record as 15 % of the patients.

For the compound `CC(O)CO` (centres unmarked) [propylene glycol], the “Hildebrand coefficient (solubility parameter δ)” value in data set [2] was “about 14.8 (cal/cm^3)^1/2”. Further, the skin irritation entry with skin is reported as “does not in itself give rise to any significant skin irritation”.
